The text below walks through data of patent US20220017572A1, “GEMINOID LIPOPEPTIDE COMPOUNDS AND THEIR USES” (Erasmus University Medical Center Rotterdam, priority 2016, published 2022).

Residues, ends and D or L forms follow the SMILES beside them.

Test [1] addresses T1, dengue 2 protease (Dengue virus type 2, UniProt P14340).
T1 construct: The active site of the dengue protease is in the N-terminal part of NS3
The test is described as follows: Dengue 2 protease inhibition in presence of Triton X-100 (detergent test, Nature Protocol). In kind it is biochemical, dengue 2 virus. As to conditions: 0.05% Triton X-100; for Activity with 0.05% Triton: initial activity in UAF/min. From the text:
A further investigation of the interactions of the geminoid inhibitors with biological membranes and with membrane-bound proteases is needed. […] The preparation and tests of peptides symmetrically, asymmetrically and singly alkylated with saturated, short (C6), and unsaturated (C18:1) alkyl tails are in progress.

Test [2] deals with T1, dengue 2 protease. The test is described as follows: Dengue 2 protease inhibition, hydrolysis of Z-RR-MCA. In kind it is biochemical, dengue 2 virus. More on the design: unit not given here. As to conditions: 10 μM Z-RR-MCA, pH 9.0, 37° C., initial activity in UAF/min.
For test [3], the target named is T1, dengue 2 protease. Described as above. In kind it is biochemical, dengue 2 virus. More on the design: Activity with inhibitors: unit not given here. As to conditions: for activity at 5 µM: 5 μM inhibitor; for activity at 10 µM: 10 μM inhibitor; for activity at 15 µM: 15 μM inhibitor; for Activity with inhibitors: 25 μM of inhibitor, 10 μM Z-RR-MCA, pH 9.0, 37° C., initial activity in UAF/min; for activity at 40 µM: 40 μM inhibitor. On the procedure:
The active site of the dengue protease is in the N-terminal part of NS3 which is also a serine protease with catalytic triad Asp79-His51-Ser135, but requires […] (CF40) for activity; the inhibition reported here was studied on a […] (CF40-GGGGSGGGG-NS3; (SEQ ID NO:54)) which has also been structurally characterized [Erbel et al., 2006; Luo et al. 2008].
(§1) Substrate was added in a concentration 10 times the Km, and the inhibitor compounds of type C (C16-KGnK-C16, C16-KAnK-C16, and C16-RAnR-C16) were added in increasing concentrations (1.0, 5.0, 10.0, 20.0, 40.0 μL) from a stock solution of 2 mg in 1 mL DMSO. The residual activity was measured in a Hitachi F2500 spectrofluorimeter, and plots were fitted using the Grafit® software (Erithracus Software, Horley, Surrey, UK). All the assays were calculated by the Morrison equation for competitive inhibition (eq. 1, [Morrison, 1969]). The amount of substrate used for the tight binding titration experiments follow all the requirements, where [S]<<Km for all enzymes, so the Kiapp=Ki.
(§2) Range of Proteases Inhibited by Geminoids, Determination of Ki with Z-RR-MCA (Dengue 2 Protease) and Ac-RVRR-MCA (Furin) (SEQ ID NO:60).

The subject of another test is DENV2 protease replicon. As to the kind of experiment: DENV2 protease replicon assay. In kind it is cell-based. As to conditions: lowest concentration with observed activity in replicon assay.
The next test concerns the target T2, DENV2 protease (Dengue virus type 2, UniProt P14340).
T2 construct: The active site of the dengue protease is in the N-terminal part of NS3
As to the kind of experiment: DENV2 protease biochemical assay. As to conditions: 50 μM inhibitor.

A further test has as its target thrombin (Homo sapiens, UniProt P00734). As to the kind of experiment: Thrombin inhibition, fluorimetric enzyme assay. In kind it is biochemical. As to conditions: 36.5° C., read-out: Residual Activity (%) Thrombin; for remaining activity at 15 µM: 15 μM inhibitor. As for the experimental part: as §1, with “The enzyme was dissolved in 1 mL MES buffer (10 mM), 1 mM CaCl2, pH 7.0 at 36.5° C. Substrate” for “Substrate”, “Kiapp=Ki. […]” for “Kiapp=Ki.”

A further test addresses human furin (Homo sapiens, UniProt P09958). As to the kind of experiment: Human furin inhibition, hydrolysis of Ac-RVRR-MCA. As to conditions: for activity at 5 µM: 5 μM inhibitor; for activity at 10 µM: 10 μM inhibitor; for activity at 15 µM: 15 μM inhibitor; for activity at 40 µM: 40 μM inhibitor. In kind it is biochemical. On the procedure: as §1, with “The enzyme was dissolved in 1 mL MES buffer (10 mM), 1 mM CaCl2, pH 7.0 at 36.5° C. Substrate” for “Substrate”
However, for furin we used a correction of Ki app, where [S]˜Km (eq. 2).
as §2

A further test deals with T3, trypsin (Bos taurus, UniProt P00760).
T3 construct: gene PRSS1
T3 sequence (P00760 24-246): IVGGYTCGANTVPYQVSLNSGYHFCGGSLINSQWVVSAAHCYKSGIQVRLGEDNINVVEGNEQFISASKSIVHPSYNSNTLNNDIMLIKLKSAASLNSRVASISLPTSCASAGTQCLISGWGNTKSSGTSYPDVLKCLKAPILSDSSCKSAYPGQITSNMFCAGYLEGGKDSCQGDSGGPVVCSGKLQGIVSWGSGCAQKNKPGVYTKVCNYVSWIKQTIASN
As to the kind of experiment: Trypsin inhibition, fluorimetric enzyme assay. In kind it is biochemical. As to conditions: for remaining activity at 15 µM: 15 μM inhibitor. On the procedure:
as §1, with “The enzyme was dissolved in 1 mL MES buffer (10 mM), 1 mM CaCl2, pH 7.0 at 36.5° C. Substrate” for “Substrate”
The first group of gemini-like peptide amphiphiles to be screened was that of C16-K(G or A)nK-C16 (compound type C, with R1=n-C15H31, R2=n-C16H33). […] The results of the Ki determination for trypsin, dengue 2 protease, and human furin are given in Table 1A; some general data for the inhibition by this type of compounds are given in Table 1B. For most compounds in Table 1 the Ki could be derived from competitive inhibition experiments. Judging from the Ki values with the relatively simple substrate Z-RR-MCA, the best inhibitors for dengue 2 protease contain alanine (A) rather than glycine (G).

The mark [4] stands for this setting: 36.5° C., read-out: Residual Activity (%) Trypsin.

human furin, sequence (P09958 108-794): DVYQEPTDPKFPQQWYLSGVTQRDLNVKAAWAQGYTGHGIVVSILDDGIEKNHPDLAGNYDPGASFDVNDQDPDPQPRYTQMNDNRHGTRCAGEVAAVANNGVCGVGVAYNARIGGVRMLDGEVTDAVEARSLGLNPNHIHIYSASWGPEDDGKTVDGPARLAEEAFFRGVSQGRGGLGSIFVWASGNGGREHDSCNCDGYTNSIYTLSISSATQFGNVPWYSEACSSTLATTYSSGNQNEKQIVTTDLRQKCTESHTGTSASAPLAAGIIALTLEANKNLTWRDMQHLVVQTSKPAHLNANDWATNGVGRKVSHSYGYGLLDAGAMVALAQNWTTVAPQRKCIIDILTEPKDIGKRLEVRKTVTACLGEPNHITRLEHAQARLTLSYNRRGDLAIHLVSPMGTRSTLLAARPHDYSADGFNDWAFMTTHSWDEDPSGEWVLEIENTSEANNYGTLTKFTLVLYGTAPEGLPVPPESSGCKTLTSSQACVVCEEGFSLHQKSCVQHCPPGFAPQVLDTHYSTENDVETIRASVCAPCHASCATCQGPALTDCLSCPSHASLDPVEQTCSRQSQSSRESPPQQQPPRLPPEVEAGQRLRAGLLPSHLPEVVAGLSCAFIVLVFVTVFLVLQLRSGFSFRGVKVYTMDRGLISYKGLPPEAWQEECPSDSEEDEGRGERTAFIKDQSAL
T1 sequence (P14340 1476-1653): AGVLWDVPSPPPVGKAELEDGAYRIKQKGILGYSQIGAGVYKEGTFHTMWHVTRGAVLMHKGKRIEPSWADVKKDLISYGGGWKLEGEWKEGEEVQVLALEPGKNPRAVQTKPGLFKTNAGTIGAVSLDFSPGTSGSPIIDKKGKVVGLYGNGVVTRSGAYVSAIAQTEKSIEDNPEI
T2 sequence (P14340 1476-1653): as above
T2 sequence (P14340 1398-1437): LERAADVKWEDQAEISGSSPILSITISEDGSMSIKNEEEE

`CCCCCCCCCCCCNC(=O)[C@H](CCCCN)NC(=O)[C@H](C)NC(=O)[C@H](C)NC(=O)[C@H](CCCCN)NC(=O)CCCCCCCCCCC` [C12KA2KC12, n-C11H23C(O)-Lys-(Ala)2-Lys-(n-C12H25).2TFA] (HELM PEPTIDE1{[CCCCCCCCCCCC(=O)[*:2]].K.A.A.K.[CCCCCCCCCCCCN[*:1]]}$$$$V2.0): at dengue 2 protease [1] (20 μM of inhibitor), the “% recovery in presence of Triton” value came to 95% and the “Activity with 0.05% Triton” value worked out at 216. On dengue 2 protease [2] (20 μM of inhibitor), the Activity with inhibitors turned out to be 5. The Ki at dengue 2 protease [3] is 11600 nM.
In the case of `CCCCCCCCCCCCNC(=O)[C@H](CCCCN)NC(=O)[C@H](CCCCN)NC(=O)CCCCCCCCCCC` [C12KKC12, n-C11H23C(O)-Lys-Lys-(n-C12H25).2TFA], at dengue 2 protease [1] (30 μM of inhibitor), the “% recovery in presence of Triton” value is listed as 82% and the “Activity with 0.05% Triton” value was found to be 180. The molecule also yielded an Activity with inhibitors on dengue 2 protease [2] (30 μM of inhibitor) of 0. The molecule also returned a Ki on dengue 2 protease [3] of 132000 nM.
As for `CCCCCCCCCCCCCCCCNC(=O)[C@H](CCCCN)NC(=O)[C@H](C)NC(=O)[C@H](C)NC(=O)[C@H](CCCCN)NC(=O)CCCCCCCCCCCCCCC` [C16-KAAK-C16] (HELM PEPTIDE1{[CCCCCCCCCCCCCCCC(=O)[*:2]].K.A.A.K.[CCCCCCCCCCCCCCCCN[*:1]]}$$$$V2.0), the “% recovery in presence of Triton” value on dengue 2 protease [1] (25 μM of inhibitor) was 56%. Further, the “Activity with 0.05% Triton” value at dengue 2 protease [1] (25 μM of inhibitor) is listed as 100. The “Replicon activity [μM] (1)” value with DENV2 protease replicon was 3.0 µM. Further, the inhibition at 50 µM on DENV2 protease was found to be 97.7%. Besides, the values for the remaining activity at 15 µM at thrombin and on trypsin (setting [4]) were 80% and 64%, respectively. The remaining activity at 40 µM on thrombin (40 μM inhibitor) turned out to be 55%; on trypsin (40 μM inhibitor, 36.5° C., read-out: Residual Activity (%) Trypsin), 20%. Besides, the remaining activity at 80 µM at thrombin (80 μM inhibitor) turned out to be 39%; on trypsin (80 μM inhibitor, 36.5° C., read-out: Residual Activity (%) Trypsin), 7%. The activity at 2.5 µM on human furin (2.5 μM inhibitor, 36.5° C.) was 94%; on dengue 2 protease [3] (2.5 μM inhibitor, 36.5° C.), 89%. Besides, the activity at 5 µM on human furin (36.5° C.) worked out at 83%; at dengue 2 protease [3] (36.5° C.), 79%. Besides, the activity at 10 µM on human furin (36.5° C.) was 77%; at dengue 2 protease [3] (36.5° C.), 68%. The values for the activity at 15 µM on human furin (36.5° C.) and at dengue 2 protease [3] (36.5° C.) were 69% and 45%, respectively. Moreover, the activity at 40 µM at human furin (36.5° C.) worked out at 3%; at dengue 2 protease [3] (36.5° C.) it was 10%. The inhibition constant Ki at human furin (10 mM Mes.NaOH, pH 7.0, 2.35 μM Ac-RVRR-MCA, 37° C., read-out: Ki hFurin) amounted to 970 nM; at dengue 2 protease [3], 630 nM. The Activity with inhibitors on dengue 2 protease [3] was determined as 0.
On to `CCCCCCCCCCCCCCCCNC(=O)[C@H](CCCCN)NC(=O)CNC(=O)[C@H](CCCCN)NC(=O)CCCCCCCCCCCCCCC` [C16-KGK-C16, C15H31CO-KGK-NH—C16H33], for which, on dengue 2 protease [1] (25 μM of inhibitor), the “% recovery in presence of Triton” value turned out to be 48%. Also, the “Activity with 0.05% Triton” value on dengue 2 protease [1] (25 μM of inhibitor) is reported as 90. In addition, the “Replicon activity [μM] (1)” value with DENV2 protease replicon came out at 1.0 µM. For the same molecule, the inhibition at 50 µM against DENV2 protease is 103%. The values for the remaining activity at 15 µM on thrombin and at trypsin (setting [4]) were 75% and 76%, respectively. Moreover, the remaining activity at 55 µM turned out to be 61% at thrombin (55 μM inhibitor) and 40% at trypsin (55 μM inhibitor, 36.5° C., read-out: Residual Activity (%) Trypsin). Also, the remaining activity at 85 µM on thrombin (85 μM inhibitor) turned out to be 40%; on trypsin (85 μM inhibitor, 36.5° C., read-out: Residual Activity (%) Trypsin) it was 24%. The activity at 5 µM on human furin (36.5° C.) was 53%; at dengue 2 protease [3] (36.5° C.) it was 75%. For the same molecule, the activity at 10 µM was 18% at human furin (36.5° C.) and 54% on dengue 2 protease [3] (36.5° C.). Also, the activity at 15 µM on human furin (36.5° C.) turned out to be 7%; on dengue 2 protease [3] (36.5° C.) it was 40%. In addition, the activity at 20 µM amounted to 4% on human furin (20 μM inhibitor, 36.5° C.) and 29% at dengue 2 protease [3] (20 μM inhibitor, 36.5° C.). For the same molecule, the activity at 40 µM at human furin (36.5° C.) came to 0%; at dengue 2 protease [3] (36.5° C.), 2%. The Ki turned out to be 41600 nM at trypsin and 1560 nM at dengue 2 protease [3]. Further, the Activity with inhibitors on dengue 2 protease [3] was 50.
Regarding `CCCCCCCCCCCCCCCCNC(=O)[C@H](CCCNC(=N)N)NC(=O)[C@H](C)NC(=O)[C@H](C)NC(=O)[C@H](CCCNC(=N)N)NC(=O)CCCCCCCCCCCCCCC` [C16RA2RC16, n-C15H31C(O)-Arg-(Ala)2-Arg-(n-C16H33).2TFA] (HELM PEPTIDE1{[CCCCCCCCCCCCCCCC(=O)[*:2]].R.A.A.R.[CCCCCCCCCCCCCCCCN[*:1]]}$$$$V2.0), on dengue 2 protease [1] (30 μM of inhibitor), the “% recovery in presence of Triton” value is 61% and the “Activity with 0.05% Triton” value amounted to 128. Besides, the Activity with inhibitors on dengue 2 protease [2] (30 μM of inhibitor) is 0. On dengue 2 protease [3], the Ki is 2100 nM.
For `CCCCCCCCCCCCCCCCNC(=O)[C@H](CCCNC(=N)N)NC(=O)[C@H](C)NC(=O)[C@H](C)NC(=O)[C@H](C)NC(=O)[C@H](C)NC(=O)[C@H](CCCNC(=N)N)NC(=O)CCCCCCCCCCCCCCC` [C16RA4RC16, n-C15H31C(O)-Arg-(la)4-Arg-(n-C16H33).2TFA] (HELM PEPTIDE1{[CCCCCCCCCCCCCCCC(=O)[*:2]].R.A.A.A.A.R.[CCCCCCCCCCCCCCCCN[*:1]]}$$$$V2.0), on dengue 2 protease [1] (20 μM of inhibitor), the “% recovery in presence of Triton” value came out at 68% and the “Activity with 0.05% Triton” value is 164. The molecule also registered an Activity with inhibitors on dengue 2 protease [2] (20 μM of inhibitor) of 22. At dengue 2 protease [3], this molecule returned a Ki of 1400 nM.
For `CCCCCCCCCCCCCCCCNC(=O)[C@H](CCCNC(=N)N)NC(=O)[C@H](CCCNC(=N)N)NC(=O)CCCCCCCCCCCCCCC` [C16RRC16, n-C15H31C(O)-Arg-Arg-(n-C16H33).2TFA], in that order: 74%, 148, 48 and 800 nM.

One may read the Ki as the dissociation constant of the complex between target and ligand, obtained from inhibition or displacement. In general, inhibition refers to the relative decrease from the control value, in per cent.
